The results in this text go back to patent publication US20240239829A1 (priority 2021, published 2024).

For series [1] the following is noted: for stability: compound alone, 5 mg/ml, 37° C., SGF pH 1.0, PBS pH 4.5, SIF pH 7.3, 0.5-6 hours.
Series [2] has as its system A/PR/8/34(H1N1) influenza virus. On the set-up: species or system C57BL/6J mice. The note with it: mouse, in vivo.
In series [3] the test system is A/H3N2/Hong Kong/1/68 influenza virus. On the set-up: species or system C57BL/6J mice. The note with it: mouse, in vivo.
The test system of the next series is respiratory infection. Nature of the series: Prevention of respiratory infections of weaning piglets. The series is classed as in vivo. An excerpt:
The sick rate was about 10% and the death rate was about 5%. […] Control feed comprised 500 grams of Tilmicosin per 1000 kg. The nursery feeds were given to 763 of weaning piglets and 750 of controls from day 15 of the weaning period.

Series [4] relates to human lung epithelium cell line A549. The series can be described thus: Antibody binding to healthy or damaged A549 cells. The series is classed as cell-based.
The test system of another series is human fetal tissues. Nature of the series: Antibody binding to human fetal tissues (tissue array slides). The note with it: lung, heart, kidney, brain, pancreas, liver, thymus and testicle. An excerpt: (§1) Further, the Regn10987 antibody from COVID-19 infected patient and fetal tissues or multiple diseased tissues of tissue array slides (purchased from US Biomax) were used to evaluate the pathogenicity of the antibody specific to the SARS-CoV-2 S1 protein. […] In addition, the Regn10987 bound broadly to the human inflammatory tissues or cancer tissues of respiratory, cardiovesvular, urinary and digestive system (FIGS. 17A and 17B). The human inflammatory diseases tested include pneumonia, bronchitis, bronchiectasis, valvular disease, rheumatoid valvular disease, myocarditis, esophagitis, gastritis, collitis, appendicitis, pancreatitis, and hepatitis. The cancer tissues tested include small cell lung carcinoma, kidney clear cell carcinoma, and myxoma.

Series [5] relates to human inflammatory tissues or cancer tissues. The series can be described thus: Antibody binding to human diseased tissues (tissue array slides). The note with it: respiratory, cardiovascular, urinary and digestive system.
Source text: as §1

Series [6] deals with fetus and newborn mouse pups of timed-pregnant mice.

Like-named read-outs stand apart in the source and are kept apart here.

In the case of `CC(=O)N[C@H]1[C@H]([C@H](O)[C@H](O)CO)OC(O)(C(=O)O)C[C@@H]1O` (some centres unmarked) [NANA, N-acetylneuraminic acid], the stability entry in series [1] was “stable at all the pH conditions”.
Consider `COC(=O)[C@]1(O)CC(O)[C@@H](NC(C)=O)C(C(O)[C@H](O)CO)O1` (some centres unmarked) [NANA-Me, N-acetylneuraminic acid methyl ester], for which the “deaths (survival rate)” value in series [2] (pH 1.5) is “ineffective”; in series [2] (pH 3.5), “ineffective”; in series [2] (pH 4.5), “significantly reduced deaths”; in series [2] (pH 7) it was “ineffective”. The stability result in series [1] was “most stable at about pH 4.5 and least stable at about pH 7.3”. Further, the “NANA-Me stability by ratio NANA:NANA-Me” value in series [1] (pH 7.4) was “most stable at NANA:NANA-Me of 1:4 and least stable at NANA:NANA-Me of 1:1”.
Take `CCOC(=O)C1=C[C@@H](OC(CC)CC)[C@H](NC(C)=O)[C@@H](N)C1` [Tamiflu]: in series [2], the body weight entry is recorded as “maintained better body weight”; the “deaths (survival rate)” value is recorded as “significantly reduced the deaths”; the “inflammation of lung and intestine (HE stained tissue sections)” value was “Severe inflammation”; the “lung cytokine level of IL-1β” value was “remained abnormally higher”. In addition, in series [2], the “lung cytokine level of IL-6” value is reported as “remained abnormally higher”, the “lung cytokine level of TNF-α” value is reported as “remained abnormally higher”, the “serum cytokine level of IL-6” value is on record as “significantly reduced” and the “serum cytokine level of TNF-α” value was “significantly reduced”. Moreover, the “deaths (survival rate)” value in series [2] (listed as Tamilu) is “did not show significant effect”. Further, the “therapeutic efficacy compared to vehicle controls” value in series [3] was “did not show significant efficacy”.
For the molecule `CC[C@H]1OC(=O)C[C@@H](O)[C@H](C)[C@@H](O[C@@H]2O[C@H](C)[C@@H](O)[C@H](N(C)C)[C@H]2O)[C@@H](CCN2C[C@H](C)C[C@H](C)C2)C[C@@H](C)C(=O)/C=C/C(C)=C/[C@@H]1CO[C@@H]1O[C@H](C)[C@@H](O)[C@@H](OC)[C@H]1OC` [Tilmicosin], the “Odds Ratio” value with respiratory infection (death) was 5.76. In the series with respiratory infection (number of piglets, nursery feed for 4 days from day 15 of weaning), the Death amounted to 38.
As to “MAb-Regn10987: naturally occurred human monoclonal antibody specific to the COVID-19 (SARS-CoV-2) S1 protein”, in series [4] (A549 cells with missed sialic acid on the cell surface), the “binding to damaged A549 cells” value is given as “strongly bound”. In addition, the “binding to healthy A549 cells” value in series [4] (healthy (intact) A549 cells) is listed as “weakly bound”. In addition, in the series on human fetal tissues, the “binding to human fetal tissues” value is “bound”. Further, the “binding to human inflammatory tissues or cancer tissues” value in series [5] is “bound broadly”. Moreover, in series [6] (mouse, in vivo), the “histological changes of lungs of mouse pups (HE)” value is “Acute lung inflammation and injury”; the “histology of the brains of mouse pups (HE)” value is on record as “Large amount of inflammatory cells infiltration”. In series [6] (mouse, in vivo, ip), the “Death (%)” value was determined as 44.8%, the “Sick (%)” value is given as 17.1% and the “Sick + Death (%)” value came out at 61.9%. Also, the “Odds Ratio” value in series [6] (sick and death of mouse pups, vs saline) worked out at 21.3.
